Laboratory results reported in paper PMC4975872 (Journal of biomolecular screening, 2014).
Like-named read-outs stand apart in the source and are kept apart here. Each block holds one molecule with its values, some of them ahead of it.

Columns and labels:
[1] = test system: ERK/β-arrestin interaction; format: cell-based, human; details: antagonist 15 min, then 1 μM adrenaline for 90 min
[2] = test system: ERK/β-arrestin interaction; format: cell-based, human; details: inhibitor 15 min in serum-free DMEM, then 5% FBS for 90 min
S1P (endogenous GPCR) = format: cell-based, U2OS; details: read-out: EC50 values; n = 3
[3] = test system: ERK/β-arrestin interaction; details: 10 μM agonist, Fig. S5
[4] = test system: ERK/β-arrestin interaction; test: ERK/β-arrestin interaction LinkLight assay, RTK ligand responses; format: cell-based, human; details: endogenous RTKs in U2OS cells, serum-free DMEM, 90 min, 37°C
[5] = test system: ERK/β-arrestin interaction; test: ERK/β-arrestin interaction LinkLight assay, cytokine receptor response; format: cell-based, human; details: for S/B ratio: 0.1 μg/ml cytokine, Fig. S5; for EC50, stimulation of ERK/β-arrestin interaction signals by cytokines: endogenous cytokine receptors in U2OS cells, serum-free DMEM, 90 min, 37°C

Molecule: CN(C)CCN(C)CCc1ccc(Cl)c(Cl)c1 [BD-1047]
inhibition of GPCR agonist-induced ERK/β-arrestin interaction signals [1]: inhibit

inhibition of FBS-induced ERK/β-arrestin interaction signals [2]: did not block
Molecule: O=C(NOCC1CC1)c1ccc(F)c(F)c1Nc1ccc(I)cc1Cl [CI-1040]

inhibition of FBS-induced ERK/β-arrestin interaction signals [2]: did not block
Molecule: O=C1Nc2ccc(I)cc2/C1=C/c1cc(Br)c(O)c(Br)c1 [GW5074]

EC50 (S1P (endogenous GPCR)): 337 nM
Molecule: CCCCCCCCCCCCC/C=C/[C@@H](O)[C@@H](N)COP(=O)(O)O [S1P, sphingosine 1-phosphate]

Molecule: CNC[C@H](O)c1ccc(O)c(O)c1 [adrenaline]
S/B ratio [3]: 3.78 fold

Molecule: Cc1nc(Nc2ncc(C(=O)Nc3c(C)cccc3Cl)s2)cc(N2CCN(CCO)CC2)n1 [dasatinib]
inhibition of FBS-induced ERK/β-arrestin interaction signals [2]: blocked

Molecule: NCCc1ccc(O)c(O)c1 [dopamine]
S/B ratio [3]: 3.66 fold

EC50, stimulation of luciferase signals by RTK ligands [4]: 3.75 ng/mL
Molecule: EGF: epidermal growth factor, RTK ligand

EC50, stimulation of luciferase signals by RTK ligands [4]: 3.87 ng/mL
Molecule: FGF-b: growth factor FGF-basic, RTK ligand

EC50, stimulation of ERK/β-arrestin interaction signals by cytokines [5]: 2.8 ng/mL
Molecule: IL1β: recombinant human cytokine IL1β
S/B ratio [5]: 14.5 fold

EC50, stimulation of ERK/β-arrestin interaction signals by cytokines [5]: 5.65 ng/mL
Molecule: TNFα
S/B ratio [5]: 8.99 fold
